Reference: patent US6656497B2, “Liposomal vector for active-principle” (Lipogel, priority 1997, dated 2003)

Legend:
[1] = Passage of orally administered free calcitonin across the intestinal barrier; assay type: in vivo; details: 330 IU administered orally
Experimental: It is explained by the fact that during a massive administration of peptide such as calcitonin, a small percentage crosses the intestinal barrier (1%) without being denatured. In this case, 330 IU were administered, which corresponds to a lymphatic passage of 3.3 IU (passage from the intestinal lumen into the plasma, via the lymphatic canal pathway). However, the IV-route effect of calcitonin starts at 0.9 IU. It is thus normal to observe this effect of free calcitonin. The hypocalcaemia observed after oral administration of calcitonin decreases over time to return to the normal level after 90 min.

[2] = massive oral administration of peptide; cited from earlier work

lymphatic passage (intestinal lumen into plasma via lymphatic canal pathway) [1]: 3.3 IU
SMILES: CC(C)C[C@H](NC(=O)[C@H](CCCCN)NC(=O)CNC(=O)[C@H](CC(C)C)NC(=O)[C@@H](NC(=O)[C@@H]1CSSC[C@H](N)C(=O)N[C@@H](CO)C(=O)N[C@@H](CC(N)=O)C(=O)N[C@@H](CC(C)C)C(=O)N[C@@H](CO)C(=O)N[C@@H]([C@@H](C)O)C(=O)N1)C(C)C)C(=O)N[C@@H](CO)C(=O)N[C@@H](CCC(N)=O)C(=O)N[C@@H](CCC(=O)O)C(=O)N[C@@H](CC(C)C)C(=O)N[C@@H](Cc1c[nH]cn1)C(=O)N[C@@H](CCCCN)C(=O)N[C@@H](CC(C)C)C(=O)N[C@@H](CCC(N)=O)C(=O)N[C@H](C(=O)N[C@@H](Cc1ccc(O)cc1)C(=O)N1CCC[C@H]1C(=O)N[C@@H](CCCNC(=N)N)C(=O)N[C@H](C(=O)N[C@@H](CC(N)=O)C(=O)N[C@H](C(=O)NCC(=O)N[C@@H](CO)C(=O)NCC(=O)N[C@H](C(=O)N1CCC[C@H]1C(N)=O)[C@@H](C)O)[C@@H](C)O)[C@@H](C)O)[C@@H](C)O [free calcitonin, salmon calcitonin]
percentage crossing the intestinal barrier without being denatured [2]: 1%
